Where “and” joins values, the source holds several entries; their conditions need not be identical. Equal values may be shown once.
Assays:
[1] = molecular target: T1, hCA I (Homo sapiens, UniProt P00915); assay: stopped-flow CO2 hydrase assay, hCA I; type: biochemical
T1 construct: made in house
In short: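 Inhibition of CA-catalysed CO2 hydration was measured with a stopped-flow method. Recombinant human isoforms were used at 5–12 nM enzyme.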

[2] = system: F-c-Kit1-T GQ; assay: FRET melting competition experiments; type: binding; settings: 2 molar equiv ligand; for ΔT1/2 F-c-Kit1-T + Hairpin (1:15): 15 molar equiv unlabelled Hairpin; for ΔT1/2 F-c-Kit1-T + Hairpin (1:50): 50 molar equiv unlabelled Hairpin; for ΔT1/2 F-c-Kit1-T: no competitor
Source text: FRET melting analysis was used to further estimate the GQ over duplex selectivity of the selected compounds[53]. The GQ-forming oligonucleotide c-Kit1 labelled with FAM and TAMRA (F-c-Kit1-T) was employed because, among the parallel GQs used in this study (c-Kit1 and c-Myc), it was the only one with a lower T1/2 than the hairpin DNA duplex competitor (Hairpin), thus allowing proper estimation of the GQ-stabilising properties of the ligands in the presence of a large excess of the unlabelled (non-fluorescent) competitor. […] The sulphonamide S-3,2 was also considered since the crystal structure of such MTDL in complex with Tel23 was successfully obtained. Results of these experiments (Figure S9, Supporting Information and Table 3) confirmed that these compounds are efficient GQ stabilisers.
Measurements were carried out on an FP-8300 spectrofluorometer equipped with a Peltier temperature controller system (PCT-818). The dual-labelled GQ-forming FAM-[d([…])]-TAMRA sequence (F-c-Kit1-T), supplied by biomers.net GmbH (Ulm, Germany), was used for the experiments without further purification. […] The experiments were carried out in sealed quartz cuvettes with a path length of 1 cm, by using 0.2 μM GQ-forming oligonucleotide without or with 0.4 μM of each compound, and the unlabelled competitor (Hairpin) at 0, 3, and 10 μM final concentrations. FRET melting experiments were performed in the range 15–90 °C, with 0.2 °C/min heating rate, by monitoring the emission of FAM at 520 nm (upon excitation at 492 nm). Both excitation and emission slits were set to 5 nm. The emission intensity of FAM was then normalised between 0 and 1. Fluorescence emission spectra were acquired before (at 15 °C) and after (at 90 °C) the melting assay, in the range 500–650 nm, with a 100 nm/s scan speed. Data analysis was performed using OriginPro 2021 software.

[3] = system: c-Kit1; assay: CD melting experiments, c-Kit1 GQ; type: binding; settings: for ΔT1/2 c-Kit1: 2 molar equiv compound, T1/2 of DNA alone 55.0 °C; for ΔΔT1/2 c-Kit1: ΔT1/2 of compound minus ΔT1/2 of berberine, 2 molar equiv
[4] = molecular target: T2, hCA IX (Homo sapiens, UniProt Q16790); assay: stopped-flow CO2 hydrase assay, hCA IX; type: biochemical; settings: for Selectivity index (SI) I/IX: hCA IX over hCA I; for Selectivity index (SI) II/IX: hCA IX over hCA II; for Ki: mean ± SEM of three assays
T2 construct: made in house
In short: (§1)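 Inhibition of CA-catalysed CO2 hydration measured by stopped-flow technique. Recombinant human CA IX and XII enzymes produced in-house.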

[5] = system: Tel23; assay: CD melting experiments, Tel23 GQ; type: binding, human; settings: for ΔT1/2 Tel23: 2 molar equiv compound, T1/2 of DNA alone 53.5 °C; for ΔΔT1/2 Tel23: ΔT1/2 of compound minus ΔT1/2 of berberine, 2 molar equiv
[6] = system: Hairpin; assay: CD melting experiments, hairpin DNA duplex; settings: 2 molar equiv compound, T1/2 of DNA alone 66.0 °C
Procedure: To evaluate the possible binding and stabilisation of double-stranded DNA, a 27-nt long hairpin-forming sequence (Hairpin) was employed.
In particular, the following DNA sequences were synthesised and employed for the experiments: d([sequence]) (c-Kit1), d([sequence]) (c-Myc), d([sequence]) (Tel23), and d([sequence]) (Hairpin). Oligonucleotides were dissolved in the proper buffer and their concentration was measured by UV absorption at 90 °C, as previously reported[80]^,[81]. To achieve the correct folding of the sequences, the DNA solutions were heated in a water bath at 90 °C for 5 min, and then allowed to cool slowly to room temperature overnight. Then, DNA samples were stored at 4 °C for 24 h, before data acquisition.
The samples were prepared by dissolving the oligonucleotides in 5 mM KH2PO4/K2HPO4 buffer (pH 7.0) containing 20 mM KCl (or LiCl in the case of c-Myc because of its high thermal stability). DNA concentrations of 20 µM for GQs and 30 µM for Hairpin were used. For each compound, a 10 mM stock solution in 100% DMSO was prepared. […] CD spectra were acquired at 20 and 100 °C, in the 230–320 nm wavelength range, averaged over three scans and subtracted of the buffer baseline. The scanning speed was set to 100 nm/min, with a 0.5 s response time, and 1 nm bandwidth. CD melting experiments were carried out in the 20–100 °C temperature range, with 1 °C/min heating rate, by following changes in the CD signal at the wavelengths of the maximum CD intensity (i.e. 263 nm for c-Kit1 and c-Myc, and 290 nm for Tel23). As for Hairpin, CD melting curves were recorded by following the changes in the CD signal at 252 nm (the wavelength of the minimum CD intensity). CD melting curves were normalised between 0 and 1. […] The ΔT1/2 values correspond to the difference in the T1/2 values of the nucleic acid structures in the presence and absence of the compounds. All experiments were performed in duplicate, and the reported values are the mean of the two measurements.

[7] = molecular target: T3, hCA XII (Homo sapiens, UniProt O43570); assay: stopped-flow CO2 hydrase assay, hCA XII; type: biochemical; settings: for Selectivity index (SI) I/XII: hCA XII over hCA I; for Selectivity index (SI) II/XII: hCA XII over hCA II; for Ki: mean ± SEM of three assays
T3 construct: made in house
T3 sequence (O43570 25-354): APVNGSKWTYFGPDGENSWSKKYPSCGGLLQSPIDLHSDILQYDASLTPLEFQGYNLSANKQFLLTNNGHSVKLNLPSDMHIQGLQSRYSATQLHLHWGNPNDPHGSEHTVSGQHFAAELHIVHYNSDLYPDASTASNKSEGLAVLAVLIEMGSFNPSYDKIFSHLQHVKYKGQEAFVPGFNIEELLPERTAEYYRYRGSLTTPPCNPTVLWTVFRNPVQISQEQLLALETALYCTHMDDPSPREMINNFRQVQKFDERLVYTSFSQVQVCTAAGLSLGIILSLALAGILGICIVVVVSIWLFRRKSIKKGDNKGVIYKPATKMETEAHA
In short: as §1

[8] = sulphonamides, inhibitor-enzyme incubation 15 min, mean ± SEM of three assays
[9] = sulphonamides, inhibitor-enzyme incubation 15 min
[10] = coumarins, inhibitor-enzyme incubation 6 h

T1 sequence (P00915 whole entry): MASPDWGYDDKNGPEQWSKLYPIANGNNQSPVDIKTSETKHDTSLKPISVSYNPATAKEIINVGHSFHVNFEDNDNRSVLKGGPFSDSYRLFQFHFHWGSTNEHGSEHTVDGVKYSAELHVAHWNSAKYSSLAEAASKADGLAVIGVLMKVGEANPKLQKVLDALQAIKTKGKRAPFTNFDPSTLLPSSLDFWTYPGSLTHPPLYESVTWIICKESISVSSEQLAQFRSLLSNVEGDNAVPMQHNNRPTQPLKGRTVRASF

With `COc1ccc2cc3[n+](cc2c1OCCn1cc(-c2ccc(S(N)(=O)=O)cc2)nn1)CCc1cc2c(cc1-3)OCO2` [Compound 26, 10-Methoxy-9–(2-(4–(4-sulfamoylphenyl)-1H-1,2,3-triazol-1-yl)ethoxy)-5,6-dihydro-[1,3]dioxolo[4,5-g]isoquinolino[3,2-a]isoquinolin-7-ium hexafluorophosphate] the Ki [1, 8] was 581 ± 32.5 nM, the “ΔT1/2 F-c-Kit1-T + Hairpin (1:15)” value [2] was 10.2 °C and the “ΔT1/2 F-c-Kit1-T + Hairpin (1:50)” value [2] was 12.4 °C. For the same molecule, the “ΔT1/2 F-c-Kit1-T” value [2] was 12.4 °C, the “ΔT1/2 c-Kit1” value [3] was 22.0 °C and the “ΔΔT1/2 c-Kit1” value [3] was 9.0 °C. The “ΔΔT1/2 c-Kit1” value ([3]; listed as S-2,0) was ≥ 6.0 °C, the “Selectivity index (SI) I/IX” value [4] was 414.6 and the “Selectivity index (SI) II/IX” value [4] was 42.4. For the same molecule, the Ki [4, 9] was 1.1 nM and 1.4 nM, the “ΔT1/2 Tel23” value [5] was 10.0 °C and the “ΔΔT1/2 Tel23” value [5] was 0.5 °C. The “ΔT1/2 Hairpin” value [6] was -0.5 °C, the “Selectivity index (SI) I/XII” value [7] was 79.5 and the “Selectivity index (SI) II/XII” value [7] was 8.1. For the same molecule, the Ki [7, 9] was 7.3 ± 0.5 nM.
For `COc1ccc2cc3[n+](cc2c1OCCCn1cc(COc2ccc(S(N)(=O)=O)cc2)nn1)CCc1cc2c(cc1-3)OCO2` [Compound 29, 10-Methoxy-9–(3-(4-((4-sulfamoylphenoxy)methyl)-1H-1,2,3-triazol-1-yl)propoxy)-5,6-dihydro-[1,3]dioxolo[4,5-g]isoquinolino[3,2-a]isoquinolin-7-ium hexafluorophosphate], the Ki [1, 8] was 805 ± 60.8 nM, the “ΔT1/2 F-c-Kit1-T + Hairpin (1:15)” value [2] was 12.8 °C and the “ΔT1/2 F-c-Kit1-T + Hairpin (1:50)” value [2] was 13.2 °C. The “ΔT1/2 F-c-Kit1-T” value [2] was 13.2 °C, the “ΔT1/2 c-Kit1” value [3] was 16.0 °C and the “ΔΔT1/2 c-Kit1” value [3] was 3.0 °C. The “Selectivity index (SI) I/IX” value [4] was 1437, the “Selectivity index (SI) II/IX” value [4] was 111.3 and the Ki [4, 9] was 0.56 ± 0.03 nM. The “ΔT1/2 Tel23” value [5] was 8.0 °C, the “ΔΔT1/2 Tel23” value [5] was −1.5 °C and the “ΔT1/2 Hairpin” value [6] was -0.5 °C. For the same molecule, the “Selectivity index (SI) I/XII” value [7] was 25.8, the “Selectivity index (SI) II/XII” value [7] was 2.0 and the Ki [7, 9] was 31.2 ± 2.5 nM.
In the case of `COc1ccc2cc3[n+](cc2c1OCCCCn1cc(-c2ccc(S(N)(=O)=O)cc2)nn1)CCc1cc2c(cc1-3)OCO2` [Compound 30, 10-Methoxy-9–(4–(4-(4-sulfamoylphenyl)-1H-1,2,3-triazol-1-yl)butoxy)-5,6-dihydro-[1,3]dioxolo[4,5-g]isoquinolino[3,2-a]isoquinolin-7-ium hexafluorophosphate], the Ki [1, 8] is reported as 592 ± 36.3 nM, the “ΔT1/2 F-c-Kit1-T + Hairpin (1:15)” value [2] is reported as 13.8 °C and the “ΔT1/2 F-c-Kit1-T + Hairpin (1:50)” value [2] is reported as 12.6 °C. The “ΔT1/2 F-c-Kit1-T” value [2] was 13.6 °C, the “ΔT1/2 c-Kit1” value [3] was 20.5 °C and the “ΔΔT1/2 c-Kit1” value [3] was 7.5 °C. For the same molecule, the “ΔΔT1/2 c-Kit1” value ([3]; listed as S-4,0) was ≥ 6.0 °C, the “Selectivity index (SI) I/IX” value [4] was 1209 and the “Selectivity index (SI) II/IX” value [4] was 112.4. For the same molecule, the Ki [4, 9] was 0.49 ± 0.03 nM, the “ΔT1/2 Tel23” value [5] was 9.0 °C and the “ΔΔT1/2 Tel23” value [5] was −0.5 °C. The “ΔT1/2 Hairpin” value [6] was -1.0 °C, the “Selectivity index (SI) I/XII” value [7] was 23.2 and the “Selectivity index (SI) II/XII” value [7] was 2.2. The Ki [7, 9] was 25.5 ± 1.4 nM.
In the case of `COc1ccc2cc3[n+](cc2c1OCCCCCn1cc(-c2ccc(S(N)(=O)=O)cc2)nn1)CCc1cc2c(cc1-3)OCO2` [Compound 32, 10-Methoxy-9-((5–(4-(4-sulfamoylphenyl)-1H-1,2,3-triazol-1-yl)pentyl)oxy)-5,6-dihydro-[1,3]dioxolo[4,5-g]isoquinolino[3,2-a]isoquinolin-7-ium hexafluorophosphate], the Ki [1, 8] is reported as 574 ± 35.8 nM, the “ΔT1/2 F-c-Kit1-T + Hairpin (1:15)” value [2] is reported as 15.0 °C and the “ΔT1/2 F-c-Kit1-T + Hairpin (1:50)” value [2] is reported as 14.6 °C. For the same molecule, the “ΔT1/2 F-c-Kit1-T” value [2] was 14.4 °C, the “ΔT1/2 c-Kit1” value [3] was 19.0 °C and the “ΔΔT1/2 c-Kit1” value [3] was 6.0 °C. The “ΔΔT1/2 c-Kit1” value ([3]; listed as S-5,0) was ≥ 6.0 °C, the “Selectivity index (SI) I/IX” value [4] was 2390 and the “Selectivity index (SI) II/IX” value [4] was 65.8. For the same molecule, the Ki [4, 9] was 0.24 ± 0.02 nM, the “ΔT1/2 Tel23” value [5] was 12.0 °C and the “ΔΔT1/2 Tel23” value [5] was 2.5 °C. The “ΔT1/2 Hairpin” value [6] was -1.0 °C, the “Selectivity index (SI) I/XII” value [7] was 31.3 and the “Selectivity index (SI) II/XII” value [7] was 0.9. For the same molecule, the Ki [7, 9] was 18.3 ± 1 nM.
In the case of `COc1ccc2cc3[n+](cc2c1OCCCn1cc(COc2ccc4ccc(=O)oc4c2)nn1)CCc1cc2c(cc1-3)OCO2` [Compound 34, 10-Methoxy-9–(3-(4-(((2-oxo-2H-chromen-7-yl)oxy)methyl)-1H-1,2,3-triazol-1-yl)propoxy)-5,6-dihydro-[1,3]dioxolo[4,5-g]isoquinolino[3,2-a]isoquinolin-7-ium hexafluorophosphate], the Ki [1, 10] is reported as > 100000 nM, the “ΔT1/2 F-c-Kit1-T + Hairpin (1:15)” value [2] is reported as 11.4 °C and the “ΔT1/2 F-c-Kit1-T + Hairpin (1:50)” value [2] is reported as 11.2 °C. The “ΔT1/2 F-c-Kit1-T” value [2] was 10.6 °C, the “ΔT1/2 c-Kit1” value [3] was 20.0 °C and the “ΔΔT1/2 c-Kit1” value [3] was 7.0 °C. The Ki [4, 10] was 66 ± 4.3 nM, the “ΔT1/2 Tel23” value [5] was 10.5 °C and the “ΔΔT1/2 Tel23” value [5] was 1.0 °C. The “ΔT1/2 Hairpin” value [6] was “+1.0 °C”, the Ki [7, 10] was 30.1 ± 1.5 nM and the “Selectivity index (SI) I/XII” value [7] was > 332.2. The “Selectivity index (SI) II/XII” value [7] was > 332.2.
For `COc1ccc2cc3[n+](cc2c1OCCCCn1cc(COc2ccc4ccc(=O)oc4c2)nn1)CCc1cc2c(cc1-3)OCO2` [Compound 37, 10-Methoxy-9–(4-(4-(((2-oxo-2H-chromen-7-yl)oxy)methyl)-1H-1,2,3-triazol-1-yl)butoxy)-5,6-dihydro-[1,3]dioxolo[4,5-g]isoquinolino[3,2-a]isoquinolin-7-ium hexafluorophosphate], the Ki [1, 10] was > 100000 nM, the “ΔT1/2 F-c-Kit1-T + Hairpin (1:15)” value [2] was 12.8 °C and the “ΔT1/2 F-c-Kit1-T + Hairpin (1:50)” value [2] was 12.6 °C. The “ΔT1/2 F-c-Kit1-T” value [2] was 12.0 °C, the “ΔT1/2 c-Kit1” value [3] was 17.5 °C and the “ΔΔT1/2 c-Kit1” value [3] was 4.5 °C. The Ki [4, 10] was 17.3 ± 1.2 nM, the “Selectivity index (SI) I/IX” value [4] was > 578.0 and the “Selectivity index (SI) II/IX” value [4] was > 578.0. The “ΔT1/2 Tel23” value [5] was 9.0 °C, the “ΔΔT1/2 Tel23” value [5] was −0.5 °C and the “ΔT1/2 Hairpin” value [6] was “+0.5 °C”. For the same molecule, the Ki [7, 10] was 8.4 ± 0.5 nM, the “Selectivity index (SI) I/XII” value [7] was > 1190 and the “Selectivity index (SI) II/XII” value [7] was > 1190.
For `COc1ccc2cc3[n+](cc2c1OCCCCCn1cc(COc2ccc4ccc(=O)oc4c2)nn1)CCc1cc2c(cc1-3)OCO2` [Compound 39, 10-Methoxy-9-((5–(4-(((2-oxo-2H-chromen-7-yl)oxy)methyl)-1H-1,2,3-triazol-1-yl)pentyl)oxy)-5,6-dihydro-[1,3]dioxolo[4,5-g]isoquinolino[3,2-a]isoquinolin-7-ium hexafluorophosphate], the Ki [1, 10] was > 100000 nM, the “ΔT1/2 F-c-Kit1-T + Hairpin (1:15)” value [2] was 13.2 °C and the “ΔT1/2 F-c-Kit1-T + Hairpin (1:50)” value [2] was 14.0 °C. The “ΔT1/2 F-c-Kit1-T” value [2] was 14.6 °C, the “ΔT1/2 c-Kit1” value [3] was 20.0 °C and the “ΔΔT1/2 c-Kit1” value [3] was 7.0 °C. The Ki [4, 10] was 48.6 ± 2.6 nM, the “Selectivity index (SI) I/IX” value [4] was > 205.8 and the “Selectivity index (SI) II/IX” value [4] was > 205.8. The “ΔT1/2 Tel23” value [5] was 8.5 °C, the “ΔΔT1/2 Tel23” value [5] was −1.0 °C and the “ΔT1/2 Hairpin” value [6] was -1.0 °C. For the same molecule, the Ki [7, 10] was 20.1 ± 1.3 nM, the “Selectivity index (SI) I/XII” value [7] was > 497.5 and the “Selectivity index (SI) II/XII” value [7] was > 497.5.
